Assay results as given in ChEMBL document CHEMBL1649219, “Imidocarb dipropionate clears persistent Babesia caballi infection with elimination of transmission potential” (Antimicrob Agents Chemother, 2009).
The source made the active and inactive calls.

Columns and labels:
Format in all cases: functional, organism-based
Set-up in all cases: dose 4 mg/kg
[1] = system: Babesia caballi; assay: Antiparasitic activity against Babesia caballi receiving ticks from 4 times 4 mg/kg, im compound treated donor horse infected with Babesia caballi assessed as reduction in parasite specific antibodies measured after 100 days post-parasite transmission by C-ELISA
[2] = system: Babesia caballi; assay: Antiparasitic activity against Babesia caballi receiving ticks from 4 times 4 mg/kg, im compound treated donor horse infected with Babesia caballi assessed as reduction in parasite level measured after 100 days post-parasite transmission by nested PCR
[3] = system: Babesia caballi; assay: Antiparasitic activity against Babesia caballi infected in horse assessed as reduction in parasite specific antibodies at 4 mg/kg, im dosed 4 times at 72 hrs intervals administered 70 days postinfection measured 56 days post dose by complement fixation assay
[4] = system: Babesia caballi; assay: Antiparasitic activity against Babesia caballi infected in horse assessed as reduction in parasite level at 4 mg/kg, im dosed 4 times at 72 hrs intervals administered 70 days postinfection and measured 5 days post last dose by nested PCR
[5] = system: Babesia caballi; assay: Antiparasitic activity against Babesia caballi receiving blood from 4 times 4 mg/kg, im compound treated donor horse infected with Babesia caballi assessed as reduction in parasite specific antibodies measured after 100 days post-parasite transmission by C-ELISA
[6] = system: Babesia caballi; assay: Antiparasitic activity against Babesia caballi infected in horse assessed as reduction in parasite specific antibodies at 4 mg/kg, im dosed 4 times at 72 hrs intervals administered 70 days postinfection measured 201 days post dose by C-ELISA
[7] = system: Babesia caballi; assay: Antiparasitic activity against Babesia caballi infected in horse assessed as reduction in parasite specific antibodies at 4 mg/kg, im dosed 4 times at 72 hrs intervals administered 70 days postinfection measured 222 days post dose by immunoblot
[8] = system: Babesia caballi; assay: Antiparasitic activity against Babesia caballi receiving blood from 4 times 4 mg/kg, im compound treated donor horse infected with Babesia caballi assessed as reduction in parasite level measured after 100 days post-parasite transmission by nested PCR
[9] = system: Babesia caballi; assay: Antiparasitic activity against Babesia caballi infected in horse assessed as reduction in parasite level at 4 mg/kg, im dosed 4 times at 72 hrs intervals administered 70 days postinfection and measured 5 days post last dose by quantitative PCR

Measured: Activity

O=C(Nc1cccc(C2=NCCN2)c1)Nc1cccc(C2=NCCN2)c1
active: all assays above
